Test [1] addresses T1, P2X purinoceptor 7 (Homo sapiens, UniProt Q99572).
T1 sequence (Q99572 whole entry): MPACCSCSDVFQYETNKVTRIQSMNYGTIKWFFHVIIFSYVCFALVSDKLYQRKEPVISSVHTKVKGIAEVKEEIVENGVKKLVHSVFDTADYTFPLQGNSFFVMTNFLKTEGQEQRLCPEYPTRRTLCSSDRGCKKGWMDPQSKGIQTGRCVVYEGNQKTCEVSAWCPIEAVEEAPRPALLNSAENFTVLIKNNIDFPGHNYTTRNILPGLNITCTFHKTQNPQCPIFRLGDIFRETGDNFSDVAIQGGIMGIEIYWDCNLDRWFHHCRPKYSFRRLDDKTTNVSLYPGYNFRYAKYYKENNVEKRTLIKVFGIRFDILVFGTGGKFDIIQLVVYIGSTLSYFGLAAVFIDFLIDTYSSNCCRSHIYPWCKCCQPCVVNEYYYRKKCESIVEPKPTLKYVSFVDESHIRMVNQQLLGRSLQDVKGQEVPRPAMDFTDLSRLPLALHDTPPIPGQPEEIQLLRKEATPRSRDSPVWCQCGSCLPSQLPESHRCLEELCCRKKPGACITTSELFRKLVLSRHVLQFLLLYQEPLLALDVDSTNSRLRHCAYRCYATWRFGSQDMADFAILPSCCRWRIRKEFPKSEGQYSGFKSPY
The test can be described thus: (§1) On the day of the experiment, cell membrane preparations were made according to standard published methods. The total assay volume was 100 μl:10 μl compound (10×)+(b) 40 μl tracer (2.5×)+50 μl membrane (2×). The tracer used for the assay was tritiated A-804598. The compound can be prepared as described in the literature. […] The assay was terminated by filtration (GF/B filters pre-soaked with 0.3% PEI) and washed with washing buffer (Tris-HCl 50 mM). The IC50 generated in the binding assay was corrected for tracer concentration and affinity of the tracer to derive at the affinity (Ki) of the test compounds.

In test [2] the target is T2, P2X purinoceptor 7 (Rattus norvegicus, UniProt Q64663).
T2 sequence (Q64663 whole entry): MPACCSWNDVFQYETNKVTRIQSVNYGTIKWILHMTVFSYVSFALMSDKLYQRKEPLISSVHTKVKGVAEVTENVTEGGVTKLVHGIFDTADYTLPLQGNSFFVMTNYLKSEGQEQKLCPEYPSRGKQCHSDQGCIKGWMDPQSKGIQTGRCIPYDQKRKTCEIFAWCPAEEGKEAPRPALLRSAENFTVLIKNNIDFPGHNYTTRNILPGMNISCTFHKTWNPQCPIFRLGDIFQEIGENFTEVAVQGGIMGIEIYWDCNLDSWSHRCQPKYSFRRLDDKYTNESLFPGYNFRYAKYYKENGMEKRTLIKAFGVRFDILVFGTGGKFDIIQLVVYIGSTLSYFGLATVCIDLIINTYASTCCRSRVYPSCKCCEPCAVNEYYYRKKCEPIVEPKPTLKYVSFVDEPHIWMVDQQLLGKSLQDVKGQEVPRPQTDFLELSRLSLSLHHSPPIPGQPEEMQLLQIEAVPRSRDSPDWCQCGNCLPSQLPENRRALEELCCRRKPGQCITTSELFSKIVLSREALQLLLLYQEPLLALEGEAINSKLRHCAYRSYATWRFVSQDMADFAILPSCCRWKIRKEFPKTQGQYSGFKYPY
The test is described as §1.

These results are taken from ChEMBL document CHEMBL5727794, “P2X7 modulators” (2020).

On to `Cc1c(C(=O)N2Cc3nnn(C4=NN=CC4)c3CC2C)cccc1C(F)(F)F` (configuration not stated), for which the IC50 in test [1] was 16.5 nM; in test [2], 10.2 nM.

Broadly, the IC50 is the point on the concentration scale where inhibition reaches its midpoint. Read a high IC50 as weaker potency.
